# Test system: patients with seasonal allergic rhinitis (SAR)
# Experiment: MP 428 two-week randomized double-blind study: Total Nasal Symptom Score (TNSS), change from baseline
# Type: in vivo, human
# Parameters: key to Change from Baseline in AM TNSS, Mean / Change from Baseline in AM TNSS, LS Mean / Change from Baseline in AM TNSS, Median: TNSS sum of 4 symptoms each 0-3 (0=none, 3=severe); change from baseline
# Experimental: A two-week, randomized, double-blind study, which evaluated the effects of the co-administration of ASTELIN® (azelastine hydrochloride (HCl)) and FLONASE® (fluticasone propionate) compared to either product alone in patients with seasonal allergic rhinitis (SAR) was conducted during the 2006 Texas mountain cedar season. After a 5-day placebo lead-in period, 151 patients with moderate-to-severe allergic rhinitis symptoms were randomized to either: (1) (49 total patients) ASTELIN® (azelastine hydrochloride (HCl)) plus placebo saline nasal spray 2 sprays per nostril, 15 minutes apart, twice daily (AM & PM); (2) (50 total patients) FLONASE® (fluticasone propionate) plus placebo saline nasal spray, 2 sprays per nostril, 15 minutes apart, once daily (AM) and two sessions of placebo saline nasal spray, 2 sprays per nostril, 15 minutes apart (PM); or (3) (52 total patients) the co-administration of ASTELIN® (azelastine hydrochloride (HCl)) 2 sprays per nostril plus FLONASE® (fluticasone propionate) 2 sprays per nostril (AM), 15 minutes apart, and ASTELIN® (azelastine hydrochloride (HCl)) 2 sprays per nostril plus placebo saline nasal spray, 15 minutes apart, (PM) for a 2-week double-blind treatment period.
# The primary efficacy variable was the change from baseline in the Total Nasal Symptom Score (TNSS), which comprised sneezing, itchy nose, runny nose, and nasal congestion (individual symptoms scores were assigned a value between 0 and 3, where 0=no symptoms and 3=severe symptoms). This study was not statistically designed to assess the differences between ASTELIN® and FLONASE®.
# [1] = Day 9, Intent-to-Treat Population
# [2] = Day 10, Intent-to-Treat Population
# [3] = Day 10, Per-Protocol Population
# [4] = Day 11, Intent-to-Treat Population
# [5] = Day 11, Per-Protocol Population
# [6] = Day 12, Intent-to-Treat Population
smiles,measurement,setting,value
"CCC(=O)O[C@]1(C(=O)SCF)[C@H](C)C[C@H]2[C@@H]3C[C@H](F)C4=CC(=O)C=C[C@]4(C)[C@@]3(F)[C@@H](O)C[C@@]21C [Fluticasone, fluticasone propionate]","Change from Baseline in AM TNSS, Median",[1],−1.83
same,"Change from Baseline in AM and PM Combined TNSS, Mean",[1],−5.08
same,"Change from Baseline in AM and PM Combined TNSS, Median",[1],−4.58
same,"Change from Baseline in PM TNSS, LS Mean",[1],−2.73
same,"Change from Baseline in PM TNSS, Mean",[1],−2.69
same,"Change from Baseline in PM TNSS, Median",[1],−2.00
same,"Percent Change from Baseline in AM TNSS, LS Mean",[1],−24.94%
same,"Percent Change from Baseline in AM TNSS, Mean",[1],−24.52%
same,"Percent Change from Baseline in AM TNSS, Median",[1],−21.95%
same,"Percent Change from Baseline in AM and PM Combined TNSS, LS Mean",[1],−26.50%
same,"Percent Change from Baseline in AM and PM Combined TNSS, Mean",[1],−25.94%
same,"Percent Change from Baseline in AM and PM Combined TNSS, Median",[1],−23.40%
same,"Percent Change from Baseline in PM TNSS, LS Mean",[1],−27.82%
same,"Percent Change from Baseline in PM TNSS, Mean",[1],−27.18%
same,"Percent Change from Baseline in PM TNSS, Median",[1],−22.22%
same,"Change from Baseline in AM and PM Combined TNSS, LS Mean","Day 9, Intent-to-Treat Population, ANCOVA model",−5.17
same,"Change from Baseline in AM and PM Combined TNSS, LS Mean","Day 9, Per-Protocol Population",−5.21
same,"Change from Baseline in AM and PM Combined TNSS, Mean","Day 9, Per-Protocol Population",−5.18
same,"Change from Baseline in AM and PM Combined TNSS, Median","Day 9, Per-Protocol Population",−4.58
same,"Percent Change from Baseline in AM and PM Combined TNSS, LS Mean","Day 9, Per-Protocol Population",−26.65%
same,"Percent Change from Baseline in AM and PM Combined TNSS, Mean","Day 9, Per-Protocol Population",−26.33%
same,"Percent Change from Baseline in AM and PM Combined TNSS, Median","Day 9, Per-Protocol Population",−23.40%
same,"Change from Baseline in AM TNSS, LS Mean",[2],−2.74
same,"Change from Baseline in AM TNSS, Mean",[2],−2.73
same,"Change from Baseline in AM TNSS, Median",[2],−2.80
same,"Change from Baseline in AM and PM Combined TNSS, Mean",[2],−5.61
same,"Change from Baseline in AM and PM Combined TNSS, Median",[2],−4.83
same,"Change from Baseline in PM TNSS, LS Mean",[2],−2.90
same,"Change from Baseline in PM TNSS, Mean",[2],−2.88
same,"Change from Baseline in PM TNSS, Median",[2],−2.60
same,"Percent Change from Baseline in AM TNSS, LS Mean",[2],−28.09%
same,"Percent Change from Baseline in AM TNSS, Mean",[2],−28.06%
same,"Percent Change from Baseline in AM TNSS, Median",[2],−28.36%
same,"Percent Change from Baseline in AM and PM Combined TNSS, LS Mean",[2],−28.93%
same,"Percent Change from Baseline in AM and PM Combined TNSS, Mean",[2],−28.76%
same,"Percent Change from Baseline in AM and PM Combined TNSS, Median",[2],−27.10%
same,"Percent Change from Baseline in PM TNSS, LS Mean",[2],−29.73%
same,"Percent Change from Baseline in PM TNSS, Mean",[2],−29.48%
same,"Percent Change from Baseline in PM TNSS, Median",[2],−27.27%
same,"Change from Baseline in AM and PM Combined TNSS, LS Mean","Day 10, Intent-to-Treat Population, ANCOVA model",−5.64
same,"Change from Baseline in AM and PM Combined TNSS, LS Mean",[3],−5.70
same,"Change from Baseline in AM and PM Combined TNSS, Mean",[3],−5.74
same,"Change from Baseline in AM and PM Combined TNSS, Median",[3],−4.83
same,"Percent Change from Baseline in AM and PM Combined TNSS, LS Mean",[3],−29.19%
same,"Percent Change from Baseline in AM and PM Combined TNSS, Mean",[3],−29.26%
same,"Percent Change from Baseline in AM and PM Combined TNSS, Median",[3],−27.10%
same,"Change from Baseline in AM TNSS, LS Mean",[4],−2.52
same,"Change from Baseline in AM TNSS, Mean",[4],−2.49
same,"Change from Baseline in AM TNSS, Median",[4],−2.00
same,"Change from Baseline in AM and PM Combined TNSS, Mean",[4],−5.77
same,"Change from Baseline in AM and PM Combined TNSS, Median",[4],−4.83
same,"Change from Baseline in PM TNSS, LS Mean",[4],−3.33
same,"Change from Baseline in PM TNSS, Mean",[4],−3.29
same,"Change from Baseline in PM TNSS, Median",[4],−3.00
same,"Percent Change from Baseline in AM TNSS, LS Mean",[4],−25.25%
same,"Percent Change from Baseline in AM TNSS, Mean",[4],−25.02%
same,"Percent Change from Baseline in AM TNSS, Median",[4],−18.37%
same,"Percent Change from Baseline in AM and PM Combined TNSS, LS Mean",[4],−29.71%
same,"Percent Change from Baseline in AM and PM Combined TNSS, Mean",[4],−29.30%
same,"Percent Change from Baseline in AM and PM Combined TNSS, Median",[4],−27.71%
same,"Percent Change from Baseline in PM TNSS, LS Mean",[4],−34.15%
same,"Percent Change from Baseline in PM TNSS, Mean",[4],−33.54%
same,"Percent Change from Baseline in PM TNSS, Median",[4],−33.33%
same,"Change from Baseline in AM and PM Combined TNSS, LS Mean","Day 11, Intent-to-Treat Population, ANCOVA model",−5.85
same,"Change from Baseline in AM and PM Combined TNSS, LS Mean",[5],−5.89
same,"Change from Baseline in AM and PM Combined TNSS, Mean",[5],−5.89
same,"Change from Baseline in AM and PM Combined TNSS, Median",[5],−4.83
same,"Percent Change from Baseline in AM and PM Combined TNSS, LS Mean",[5],−29.83%
same,"Percent Change from Baseline in AM and PM Combined TNSS, Mean",[5],−29.69%
same,"Percent Change from Baseline in AM and PM Combined TNSS, Median",[5],−27.71%
same,"Change from Baseline in AM TNSS, LS Mean",[6],−2.99
same,"Change from Baseline in AM TNSS, Mean",[6],−2.98
same,"Change from Baseline in AM TNSS, Median",[6],−2.75
same,"Change from Baseline in AM and PM Combined TNSS, Mean",[6],−6.08
same,"Change from Baseline in AM and PM Combined TNSS, Median",[6],−5.17
same,"Change from Baseline in PM TNSS, LS Mean",[6],−3.13
same,"Change from Baseline in PM TNSS, Mean",[6],−3.10
same,"Change from Baseline in PM TNSS, Median",[6],−3.00
same,"Percent Change from Baseline in AM TNSS, LS Mean",[6],−30.64%
same,"Percent Change from Baseline in AM TNSS, Mean",[6],−30.49%
same,"Percent Change from Baseline in AM TNSS, Median",[6],−26.83%
same,"Percent Change from Baseline in AM and PM Combined TNSS, LS Mean",[6],−31.31%
same,"Percent Change from Baseline in AM and PM Combined TNSS, Mean",[6],−31.04%
same,"Percent Change from Baseline in AM and PM Combined TNSS, Median",[6],−27.78%
same,"Percent Change from Baseline in PM TNSS, LS Mean",[6],−32.00%
same,"Percent Change from Baseline in PM TNSS, Mean",[6],−31.52%

# Source: patent US8758816B2, “Compositions comprising azelastine and methods of use thereof” (priority 2004, dated 2014)
